Laboratory results: patent publication US20250314661A1, “CHEMIGENETIC TOOLS AND METHODS OF CONTROLLING AND ASSESSING PROTEIN PHASE SEPARATION” (THE REGENTS OF THE UNIVERSITY OF CALIFORNIA, priority 2022, published 2025)
Blank lines part the entries; values can stand above or below the molecule they belong to.

Key:
[1] = system: other cells; conditions: cells other than multiple myeloma; Siu et al. (2017); cited from earlier work
[2] = target: MYCN fused to FRB and mEGFP (UniProt P04198); assay: cell-based or functional assay
Chain of MYCN fused to FRB and mEGFP (P04198 other isoform, or with tags, fused parts or gaps): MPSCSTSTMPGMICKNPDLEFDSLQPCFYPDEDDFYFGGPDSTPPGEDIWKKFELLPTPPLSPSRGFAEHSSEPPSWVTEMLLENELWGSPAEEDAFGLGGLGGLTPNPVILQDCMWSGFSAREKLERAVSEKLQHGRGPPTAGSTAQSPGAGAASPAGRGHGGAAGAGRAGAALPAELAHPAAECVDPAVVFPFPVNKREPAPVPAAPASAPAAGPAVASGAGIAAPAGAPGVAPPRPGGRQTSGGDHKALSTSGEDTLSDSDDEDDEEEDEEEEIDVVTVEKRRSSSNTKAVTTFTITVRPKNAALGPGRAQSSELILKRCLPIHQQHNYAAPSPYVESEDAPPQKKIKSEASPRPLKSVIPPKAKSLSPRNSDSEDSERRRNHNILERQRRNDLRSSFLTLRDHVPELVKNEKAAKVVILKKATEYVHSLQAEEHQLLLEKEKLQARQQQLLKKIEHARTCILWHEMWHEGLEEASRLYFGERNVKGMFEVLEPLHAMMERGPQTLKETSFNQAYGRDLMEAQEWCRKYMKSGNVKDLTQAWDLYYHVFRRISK

[3] = system: Ctgf; assay: RT-qPCR of YAP target gene Ctgf mRNA; type: cell-based; conditions: cells transfected with CEL-EGFP-YAP without the ZIF construct
Protocol: FIG. 6A-D show representative images illustrating that the SparkDrop-Y AP condensates produce nascent RNAs and upregulate a direct target gene of Y AP. […] The cells were short labeled with EU for 1 hour. Arrows point to the induced YAP condensates and the colocalized nascent RNA droplets. Arrowhead points to nucleoli. The nucleus marked by asterisk was not transfected with SparkDrop-YAP. […] Data are shown as meant SD (n=3).
Lastly, whether the SparkDrop-Y AP condensates upregulate mRNA levels of a YAP target gene Ctgf were determined using RT-qPCR. […] As a control, cells were incubated with DMSO. […] Next, a positive control was conducted by incubating cells with sorbitol, which is known to induce osmotic stress and drive YAP condensate formation. […] Lastly, cells were transfected with CEL-EGFP-Y AP (without the ZIF construct), and incubated with lenalidomide or DMSO.

[4] = system: ERK; assay: ERK activity reporter ERK-KTR translocation after lenalidomide-induced SOScat translocation
Text: The relocated SOScat then activates Ras, which leads to ERK activation via the MAPK pathway.
The presence of SOS in the PM can activate Ras and promote ERK activity via the MAPK pathway (FIG. 2C, left). For targeting SOS to the PM, ZIF was first fused to the CAAX motif tagged with a red fluorescent protein (RFP). Next, CEL was fused to the catalytic domain of SOS (referred to as SOScat), which was tagged with a near infrared fluorescent protein IFP2 that helps visualizing SOScat translocation (FIG. 2C, left). […] To determine whether SOScat translocation activates ERK, a GFP translocation-based ERK activity reporter called ERK-KTR was used, which translocates from the nucleus to the cytoplasm upon activation of endogenous ERK (Regot et al. (2014) Cell 157:1724-1734).

[5] = target: T1, DDB1 (UniProt Q16531 1-1140); assay: FLAG pull-down and Western blot against DDB1, HEK293 cells, with or without exogenous DDB1
T1 construct: Tested both as endogenous protein of HEK293 cells and with exogenous over-expression; also called endogenous DDB1; exogenous DDB1
T1 sequence (Q16531 whole entry): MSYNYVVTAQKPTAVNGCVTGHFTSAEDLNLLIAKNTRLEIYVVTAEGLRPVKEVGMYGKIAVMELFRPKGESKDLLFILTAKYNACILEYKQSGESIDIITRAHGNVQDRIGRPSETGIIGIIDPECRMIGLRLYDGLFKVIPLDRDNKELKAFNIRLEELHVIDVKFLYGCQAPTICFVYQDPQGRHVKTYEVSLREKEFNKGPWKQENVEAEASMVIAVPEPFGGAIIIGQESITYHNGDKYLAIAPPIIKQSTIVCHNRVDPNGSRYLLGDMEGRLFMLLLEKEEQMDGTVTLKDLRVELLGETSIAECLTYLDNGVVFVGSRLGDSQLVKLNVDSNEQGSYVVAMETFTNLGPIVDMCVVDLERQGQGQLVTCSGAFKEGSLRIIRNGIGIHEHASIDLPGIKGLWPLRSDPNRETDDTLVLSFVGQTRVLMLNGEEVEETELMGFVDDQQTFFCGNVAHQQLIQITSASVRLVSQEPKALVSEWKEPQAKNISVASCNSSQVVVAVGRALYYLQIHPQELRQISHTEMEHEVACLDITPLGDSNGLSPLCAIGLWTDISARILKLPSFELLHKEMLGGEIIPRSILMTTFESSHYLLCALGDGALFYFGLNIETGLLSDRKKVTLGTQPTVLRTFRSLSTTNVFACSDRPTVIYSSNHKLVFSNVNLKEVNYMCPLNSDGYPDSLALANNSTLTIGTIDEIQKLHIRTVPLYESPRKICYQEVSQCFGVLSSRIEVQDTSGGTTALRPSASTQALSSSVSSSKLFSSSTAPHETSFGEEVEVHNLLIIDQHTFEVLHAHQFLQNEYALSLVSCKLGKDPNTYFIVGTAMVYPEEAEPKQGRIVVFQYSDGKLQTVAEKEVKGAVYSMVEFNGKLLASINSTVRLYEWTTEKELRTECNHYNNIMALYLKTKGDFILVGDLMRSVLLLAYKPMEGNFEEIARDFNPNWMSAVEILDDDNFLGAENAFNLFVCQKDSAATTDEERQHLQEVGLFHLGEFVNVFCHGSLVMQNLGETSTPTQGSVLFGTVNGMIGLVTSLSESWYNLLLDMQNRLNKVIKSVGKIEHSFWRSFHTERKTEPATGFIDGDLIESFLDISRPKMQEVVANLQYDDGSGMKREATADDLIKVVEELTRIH

Molecule: O=C1CCC(N2C(=O)c3ccccc3C2=O)C(=O)N1 (stereo not shown) [thalidomide]
toxicity in other cells [1]: no or little toxicity

dissolution of MYCN condensates after addition of rapamycin [2]: 10 min
Molecule: SUMO-mCherry-FKBP (from UniProt P62942 2-108)

Molecule: Nc1cccc2c1CN(C1CCC(=O)NC1=O)C2=O (stereo not shown) [lenalidomide]
Ctgf mRNA, control without ZIF construct [3]: not upregulated
ERK-KTR translocation ([4]; cells expressing CEL-IFP2-SOScat and ZIF-RFP-CAAX): translocated from the nucleus to the cytoplasm
ERK-KTR translocation, control without ZIF ([4]; cells expressing CEL-IFP2-SOScat without ZIF): did not induce ERK-KTR translocation
toxicity in other cells [1]: no or little toxicity

binding result [5]: no binding
B1: FLAG-tagged CEL (109 amino acid CRBN C-terminal domain) (other)
chain: SLCCKQCQETEITTKNEIFSLSLCGPMAAYVNPHGYVHETLTVYKACNLNLIGRPSTEHSWFPGYAWTVAQCKICASHIGWKFTATKKDMSPQKFWGLTRSALLPTIPD
notes: Expressed in HEK293 cells; also called CRBN CTD; not shown: FLAG tag
